{"source": "patent US5968753A", "about": "“Positive and positive/negative cell selection mediated by peptide release” (Nexell Therapeutics, Inc., priority 1995, dated 1999)", "key": {"561 antibody [1]": {"test_system": "561 antibody", "experiment": "Chemical reagents as enhancers of peptide-dependant release of CD34+ cells from the 561 antibody (FACS assay)", "type": "cell-based", "method": "The ability of chemical reagents to enhance peptide-dependant release of captured CD34+ cells from the 561 antibody was examined. […] Previous studies indicated a requirement for low pH (about pH4) for effective cell release. Since long-term viability of the low pH-released cells was not known, conditions which could alter the pH to a more neutral value (about pH5-7) were desirable. Reagents which were known to affect electrostatic and hydrogen bonding interactions of proteins were tested in addition to excluded-volume polymers."}, "561 antibody [2]": {"test_system": "561 antibody", "experiment": "KG1a or tHL60 cell-based FACS assay: release of prebound 561 antibody", "conditions": "for functional release activity: crude peptide", "method": "Five peptides representing hexapeptides selected from biopannings were synthesized and tested for their ability to serve as release agents in the KG1a or tHL60 cell-based FACS assay.\nHPLC-purified peptides 561C and D were tested in the cell-based KG1a FACS assay.\nFunctional release activity of purified 561D peptide at pH 4 and 6 was tested.\nFunctional release activity of purified 561C and 561D peptides at pH 4, 5, 6, 7, 8, and 9 was tested.\nFunctional release activity of crude 561A,B,C,D, M, P, Q, CDR2H, CDR2L, CDR3H, CDR3L, 34B, 34C,34D,34E and 34F peptides adjusted to pH 7 and pH unadjusted (^~ pH3.8-4.3) was tested."}, "anti-CD34 antibody, 9069": {"test_system": "anti-CD34 antibody, 9069", "experiment": "KG1a cell FACS assay: release by peptides of 9069 antibody bound to cells", "type": "cell-based, mouse", "method": "These experiments were performed following a similar procedure to the binding experiments except that the anti-CD34 antibody, 9069, was incubated with KG1a cells first, followed by addition of peptide. The experimental outline is schematically shown below:\nAnti-CD34 antibody, 9069 (0.1 microgram) was incubated with KG1a cells (10^6) for 30 minutes at room temperature (about 22° C.). Molar excesses of 10^5 to 10^6 times the amount of peptide to antibody were tested for the ability to displace the prebound antibody. Peptides were incubated with the antibody-cell complexes for 30 minutes at room temperature (approximately 22° C.). Remaining bound antibody was detected using the FITC-goat anti-mouse IgG reagent described in Example 3.\nAnalysis of the variant peptide, 9069Q2, was done in parallel with the 9069N peptide. This analysis provides quality control information on reagents including the antibody, 9069, and the cells, KG1a. FACScan assays included a negative control of KG1a cells alone and positive control samples of KG1a cells with the 9069 antibody bound and detected with a secondary antibody, goat-anti-mouse IgG-FITC."}, "CD34+ cells": {"test_system": "CD34+ cells", "experiment": "CD34+ cell isolation from mobilized peripheral blood on automated cell separation apparatus", "type": "cell-based, human", "conditions": "25 mg of peptide 9069N or chymopapain control", "method": "CD34+ cells were also isolated from human mobilized peripheral blood using the automated cell separation apparatus of co-pending U.S. patent application Ser. No. 08/212,479, and the method essentially as described in co-pending U.S. patent application Ser. No. 08/212,616. Both Ser. No. 08/212,479 and Ser. No. 08/212,616 are herein expressly incorporated by reference. Chymopapain was used as the control releasing agent, and 25 mg of the peptide 9069N (Table 11) was used as the test releasing agent."}, "9069 antibody": {"test_system": "9069 antibody", "experiment": "Stem cell selection with 9069 antibody and sheep-anti-mouse beads, release by peptide or chymopapain", "type": "cell-based", "conditions": "chymopapain release"}, "[3]": {"test_system": "positively selected CD34+ cells", "experiment": "Culture of positively selected CD34+ cells with cytokines for 12 days", "type": "cell-based, human", "conditions": "released cells of first experiment", "method": "The purity of the positively selected CD34+ cells was greater than 90% for both the chymopapain and peptide released cells. In a first experiment, the peptide release method yielded 14×10^6 cells, while the chymopapain release method yielded 20×10^6 cells. In a second experiment, the peptide release method yielded 19×10^6 cells, while the chymopapain release method yielded 22×10^6 cells. The positively selected CD34+ cells from the first experiment were grown in culture with cytokines for 12 days."}, "[4]": {"experiment": "Solubilization of peptides in DPBS plus 1% HSA", "type": "physicochemical", "conditions": "Dulbecco's phosphate buffered saline (DPBS) plus 1% HSA", "method": "9079A-G peptides were solubilized in Dulbecco's phosphate buffered saline (DPBS) plus 1% HSA. The 9079A-G peptides were tested in the FACScan assay using 10 6 KG1a cells bound with 0.05 ug of the 9079 antibody."}, "[5]": {"conditions": "Table 7, mobilized peripheral blood (5.86 % CD34)"}, "[6]": {"conditions": "Table 8, mobilized peripheral blood (1.05 % CD34)"}, "[7]": {"conditions": "Table 9, bone marrow sample (3.66 % CD34)"}, "[8]": {"conditions": "Table 10, mobilized peripheral blood (0.68 % CD34)"}}, "note": "Ends that are not written are not given here.", "data": [{"compound": "[Cl-].[Cl-].[Mg+2]", "note": "[magnesium chlordie, magnesium chloride]", "values": [{"measurement": "enhancement of peptide mediated release of CD34+ selected cells", "setting": "561 antibody [1]", "result": "Less dramatic results"}]}, {"compound": "CC(=O)O", "note": "[sodium acetate]", "values": [{"measurement": "enhancement of peptide mediated release of CD34+ selected cells", "setting": "561 antibody [1]", "result": "significant activity as an enhancement reagent"}]}, {"compound": "A C K W C R (ACKWCR) [561M]", "values": [{"measurement": "release of 561 antibody prebound to KG1a or tHL60 cells", "setting": "561 antibody [2]; KG1a or tHL60 cells", "result": "able to release 561 antibody prebound to KG1a or tHL60 cells"}, {"measurement": "functional release activity", "setting": "561 antibody [2]; pH 7", "result": "none of these peptides showed release activity"}, {"measurement": "functional release activity", "setting": "561 antibody [2]; pH unadjusted (around pH 3.8-4.3)", "result": "showed functional release activity"}, {"measurement": "release activity", "setting": "561 antibody [2]; low pH (~4)", "result": "showed significant release activity"}, {"measurement": "release activity", "setting": "561 antibody [2]; pH 6 or pH 7", "result": "did not show release activity"}]}, {"compound": "ADGA-NGGYFP-GAKD [9069H']", "values": [{"measurement": "Competition %", "setting": "anti-CD34 antibody, 9069; Table 11, 9069 prebound to KG1a cells", "result": 75, "unit": "%"}, {"measurement": "release activity", "setting": "anti-CD34 antibody, 9069; Table 13, yes/no", "result": "yes"}]}, {"compound": "Chymopapain", "values": [{"measurement": "cells yielded by release method", "setting": "CD34+ cells; first experiment", "result": "20×10^6 cells"}, {"measurement": "purity of the positively selected CD34+ cells", "setting": "CD34+ cells; mobilized peripheral blood", "result": "greater than 90%"}, {"measurement": "cells yielded by release method", "setting": "CD34+ cells; second experiment", "result": "22×10^6 cells"}, {"measurement": "% CD34 CELLS Negative Fraction", "setting": "9069 antibody; [5]", "result": 2.5, "unit": "%"}, {"measurement": "% CD34 CELLS Positive Fraction", "setting": "9069 antibody; [5]", "result": 94, "unit": "%"}, {"measurement": "% Capture", "setting": "9069 antibody; [5]", "result": 62, "unit": "%"}, {"measurement": "% Yield", "setting": "9069 antibody; [5]", "result": 65.9, "unit": "%"}, {"measurement": "% CD34 CELLS Negative Fraction", "setting": "9069 antibody; [6]", "result": 0.16, "unit": "%"}, {"measurement": "% CD34 CELLS Positive Fraction", "setting": "9069 antibody; [6]", "result": 90.1, "unit": "%"}, {"measurement": "% Capture", "setting": "9069 antibody; [6]", "result": 86.9, "unit": "%"}, {"measurement": "% Yield", "setting": "9069 antibody; [6]", "result": 73.4, "unit": "%"}, {"measurement": "% CD34 CELLS Negative Fraction", "setting": "9069 antibody; [7]", "result": 0.34, "unit": "%"}, {"measurement": "% CD34 CELLS Positive Fraction", "setting": "9069 antibody; [7]", "result": 92.1, "unit": "%"}, {"measurement": "% Capture", "setting": "9069 antibody; [7]", "result": 91.8, "unit": "%"}, {"measurement": "% Yield", "setting": "9069 antibody; [7]", "result": 79.9, "unit": "%"}, {"measurement": "% CD34 CELLS Negative Fraction", "setting": "9069 antibody; [8]", "result": 0.12, "unit": "%"}, {"measurement": "% CD34 CELLS Positive Fraction", "setting": "9069 antibody; [8]", "result": 79.73, "unit": "%"}, {"measurement": "% Capture", "setting": "9069 antibody; [8]", "result": 86.7, "unit": "%"}, {"measurement": "% Yield", "setting": "9069 antibody; [8]", "result": 68, "unit": "%"}, {"measurement": "expansion in cell number", "setting": "[3]", "result": 68, "unit": "fold"}]}, {"compound": "IQEFGVKD [9079F, IQEFGV-KD]", "values": [{"measurement": "solubility", "setting": "[4]", "result": "solubilized"}]}, {"compound": "KDVYSLWPKD [9079H, KD-VYSLWP-KD]", "values": [{"measurement": "solubility", "setting": "[4]", "result": "solubilized"}]}, {"compound": "NLQGEFKD [9079D, NLQGEF-KD]", "values": [{"measurement": "solubility", "setting": "[4]", "result": "solubilized"}]}, {"compound": "PGSPLGKD [9079A, PGSPLG-KD]", "values": [{"measurement": "solubility", "setting": "[4]", "result": "solubilized"}]}, {"compound": "QYTQPKD [9079C, QYTQPK-D]", "values": [{"measurement": "solubility", "setting": "[4]", "result": "solubilized"}]}, {"compound": "RSFYYRD [9079E, RSFYYR-D]", "values": [{"measurement": "solubility", "setting": "[4]", "result": "insoluble"}]}, {"compound": "YSRLGFKD [9079B, YSRLGF-KD]", "values": [{"measurement": "solubility", "setting": "[4]", "result": "solubilized"}]}]}
